Measured values published in paper PMC12746157, “Light-Regulated Agonists Spatiotemporally Activating the Vitamin D Receptor Mitigate Psoriasis-like Inflammation in Mice without Inducing Hypercalcemia” (ACS Central Science, 2025).

Experiments:
VDR = VDR (Homo sapiens, UniProt P11473); assay: Luminescent proximity homogeneous assay (AlphaScreen): interaction of purified VDR, RxR and TRAP220 coactivator fragment; format: biochemical; conditions: for EC50: n >= 3, read-out: Activity (pEC50) (converted); for Activity in the dark: dark (trans), concentrations up to 10 μM
VDR, sequence (P11473 whole entry, the tested form may be a part): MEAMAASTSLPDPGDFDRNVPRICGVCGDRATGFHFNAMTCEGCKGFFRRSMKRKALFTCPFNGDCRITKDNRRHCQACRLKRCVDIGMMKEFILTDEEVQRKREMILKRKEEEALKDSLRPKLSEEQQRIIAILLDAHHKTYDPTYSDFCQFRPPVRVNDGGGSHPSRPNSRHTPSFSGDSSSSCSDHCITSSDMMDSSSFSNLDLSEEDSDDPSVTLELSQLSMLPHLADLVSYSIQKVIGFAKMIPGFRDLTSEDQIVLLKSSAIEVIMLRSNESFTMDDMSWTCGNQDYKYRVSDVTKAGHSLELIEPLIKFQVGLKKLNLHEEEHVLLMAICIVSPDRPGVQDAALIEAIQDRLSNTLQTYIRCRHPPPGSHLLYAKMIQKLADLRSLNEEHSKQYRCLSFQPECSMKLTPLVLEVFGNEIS
VDR, sequence (P19793 whole entry partner, the tested form may be a part): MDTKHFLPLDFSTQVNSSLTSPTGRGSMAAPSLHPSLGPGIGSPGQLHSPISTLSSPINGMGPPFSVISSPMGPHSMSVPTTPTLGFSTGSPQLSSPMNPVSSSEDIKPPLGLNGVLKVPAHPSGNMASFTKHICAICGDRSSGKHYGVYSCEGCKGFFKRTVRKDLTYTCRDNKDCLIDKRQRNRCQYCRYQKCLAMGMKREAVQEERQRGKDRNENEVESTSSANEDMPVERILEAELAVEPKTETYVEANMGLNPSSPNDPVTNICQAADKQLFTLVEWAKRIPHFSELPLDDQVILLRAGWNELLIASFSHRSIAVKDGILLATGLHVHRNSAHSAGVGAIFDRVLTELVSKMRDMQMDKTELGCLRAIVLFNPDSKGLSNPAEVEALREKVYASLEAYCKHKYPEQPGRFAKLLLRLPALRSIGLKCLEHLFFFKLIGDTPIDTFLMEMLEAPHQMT
VDR, sequence (Q15648 whole entry partner, the tested form may be a part): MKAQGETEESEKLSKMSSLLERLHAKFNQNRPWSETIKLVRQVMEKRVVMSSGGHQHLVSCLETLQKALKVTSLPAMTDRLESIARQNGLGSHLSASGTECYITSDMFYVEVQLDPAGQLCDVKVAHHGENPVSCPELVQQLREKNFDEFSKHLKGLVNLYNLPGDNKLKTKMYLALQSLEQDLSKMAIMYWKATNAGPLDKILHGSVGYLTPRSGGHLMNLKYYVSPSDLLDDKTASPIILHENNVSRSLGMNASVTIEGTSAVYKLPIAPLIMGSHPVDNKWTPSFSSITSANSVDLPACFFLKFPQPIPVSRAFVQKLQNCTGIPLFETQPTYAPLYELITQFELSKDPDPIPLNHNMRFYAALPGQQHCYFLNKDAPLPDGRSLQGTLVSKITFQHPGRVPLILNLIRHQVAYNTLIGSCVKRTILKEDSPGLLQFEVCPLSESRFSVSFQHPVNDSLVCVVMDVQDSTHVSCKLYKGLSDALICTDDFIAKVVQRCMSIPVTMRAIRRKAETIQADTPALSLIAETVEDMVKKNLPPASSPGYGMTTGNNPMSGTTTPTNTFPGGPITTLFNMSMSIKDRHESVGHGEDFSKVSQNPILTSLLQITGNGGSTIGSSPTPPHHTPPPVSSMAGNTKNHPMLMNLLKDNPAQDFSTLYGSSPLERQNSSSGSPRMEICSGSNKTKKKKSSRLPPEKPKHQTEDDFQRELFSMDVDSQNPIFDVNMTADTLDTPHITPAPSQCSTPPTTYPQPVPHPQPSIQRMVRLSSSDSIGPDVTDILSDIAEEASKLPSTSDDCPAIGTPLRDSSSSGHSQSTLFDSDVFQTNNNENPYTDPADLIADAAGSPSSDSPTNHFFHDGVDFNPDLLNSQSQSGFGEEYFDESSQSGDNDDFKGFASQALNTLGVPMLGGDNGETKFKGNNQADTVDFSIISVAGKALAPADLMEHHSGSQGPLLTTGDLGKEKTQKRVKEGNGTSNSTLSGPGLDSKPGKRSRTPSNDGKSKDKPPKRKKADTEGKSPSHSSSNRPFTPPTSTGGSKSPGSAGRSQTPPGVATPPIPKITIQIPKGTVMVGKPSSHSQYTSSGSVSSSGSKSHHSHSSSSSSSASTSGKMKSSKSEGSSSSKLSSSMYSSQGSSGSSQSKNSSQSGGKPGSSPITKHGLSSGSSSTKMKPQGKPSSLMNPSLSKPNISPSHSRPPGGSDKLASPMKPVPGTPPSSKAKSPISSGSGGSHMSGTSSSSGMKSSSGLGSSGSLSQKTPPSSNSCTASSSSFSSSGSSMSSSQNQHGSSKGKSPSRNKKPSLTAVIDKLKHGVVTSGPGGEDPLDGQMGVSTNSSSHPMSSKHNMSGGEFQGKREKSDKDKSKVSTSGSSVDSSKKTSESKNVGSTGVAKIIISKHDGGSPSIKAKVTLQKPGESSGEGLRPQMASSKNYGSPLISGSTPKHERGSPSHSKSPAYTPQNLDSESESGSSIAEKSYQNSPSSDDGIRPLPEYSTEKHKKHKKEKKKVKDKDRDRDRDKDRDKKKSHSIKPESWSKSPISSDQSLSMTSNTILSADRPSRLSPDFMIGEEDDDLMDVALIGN
Protocol: The activity of all molecules was evaluated using a luminescent proximity homogeneous assay to study interactions between purified VDR, RxR and a fragment of the transcriptional coactivator TRAP220 (Supporting Information). This method allowed us to monitor the interaction between TRAP220 and the activated VDR-RxR heterodimer, which is of mechanistic and physiological significance. Both the activation of VDR and the VDR-RxR heterodimer formation are necessary to promote the whole complex association. This system efficiently includes conformational events of the receptor upon activation that go beyond a simple binding measurement. […]
The activity of all molecules was evaluated using an in-vitro luminescent proximity homogeneous assay by using the Alphascreen technology (Cat No. 6760619R, Perkin Elmer, now Revvity). In a transparent 96-well preplate, 10X concentrations of the compounds were prepared in assay buffer (0.1% bovine serum albumin, 2 mM 1,4-dithiothreitol, 25 mM HEPES and 100 mM NaCl; pH 7.3). LSN2148936 was used as positive control. Purified histidine-tagged VDR (44 µM), flag-RxRa (5.7 µM), biotin tagged TRAP220 transcriptional coactivator (500 µM), and the donor and acceptor beads from the AlphaScreen kit (2 µL/mL each), were diluted in assay buffer. In the dark, 6 µL/well of each test compound were pipetted on a white, shallow 96-well ProxiPlateTM […]
(Perkin Elmer, now Revvity, Cat.No. 6006290) in duplicate. Immediately, 54 µL of the protein solution were added and the plate was covered and incubated for 30 min at room temperature in the dark. Meanwhile, the plate with the 10X dilutions was illuminated at 365 nm for 3 min in a 96-well DED array plate (LEDA Teleopto), to allow the photoconversion of the molecules to their cis configuration. The illuminated compounds were mixed with the protein solution and incubated as described above for the plate in the dark. After the incubation time, the counts of both, the dark and illuminated plates, were measured in a Tecan Spark 20M Multimode plate reader with defined settings (excitation: 680 nm, emission: 520-620 nm, excitation time: 100ms, integration time: 300 ms). Biotinylated-His6 peptide (PerkinElmer) was used as a quality control reagent for AlphaScreen® assays and to evaluate compound interaction with the method. The raw data were normalized to the effect of the buffer (0%) and the maximum response obtained with LSN2148936 (100%). Dose-response curves and EC50 values were calculated with Graphpad software. Each experiment was performed in triplicate, with 2 replicates per plate.
4. Hydrogen/deuterium exchange coupled to mass spectrometry (HDX-MS)
The HDX-MS experiments were performed with an in-house automated modular system interfaced with an Orbitrap Exploris 480 mass spectrometer.1 Two inter-day experiments were conducted: one in the dark (first day) and one illuminated with 365 nm light (second day). Sample preparation and on-exchange reactions were performed on opaque plates (VWR® Real-Time […]
mm, Part Nº BC5226) light source was positioned above the Tecan system used for sample preparation. The distance between the UV light and the opaque plates was 80 cm. The 365 nm light illuminated the sample preparation process and the on-exchange reaction on the second day.
A 10 µM VDR-LBD protein stock solution was prepared in 20 mM HEPES buffer (with 150 mM NaCl, 10 mM D-L Methionine and 5 mM DTT) at pH 7.5. The compound 11b was prepared at 10 mM in DMSO. The protein: compound-complex (1:10 molar ratio) was pre-incubated for 1h before the first on-exchange reaction. The HDX reaction was initiated by a 5-fold dilution of the protein stock solution, in the presence and absence of compound 11b, in the corresponding Deuterated buffer at room temperature. Samples were prepared in parallel with three replicates of […]
time point, HDX reactions were quenched with a solution of 3 M Urea and 1% TFA (pH 2.5) followed by online proteolysis with an in-house Pepsin immobilized column and desalting […]

[1] = Proportions of cis and trans at the photostationary state in DMSO from absorbance spectra (Ernst Fischer method); format: physicochemical
Protocol: 2. Photochemical characterization.
A 50 µM solution of each compound in DMSO was dispensed into a transparent 96-well plate (200 µL per well). The absorption spectra were recorded from 300 to 600 nm with 2 nm fixed intervals using a Tecan Spark 20M Multimode microplate reader. Initial measurements were performed in the dark, followed by spectra acquired immediately after each 3 min period of light irradiation at different wavelengths using 96-well LED array plates (LEDA Teleopto). Theoretical absorbance spectra corresponding to the pure cis isomer (100%) of each compound were calculated in order to obtain the theoretical percentage of cis isomer at each wavelength, according to the method described by Ernst Fischer (1967). […]
Table S6. Proportions of cis and trans at the photostationary state in DMSO. […]

[2] = after illumination (365 nm) for 3 min, mean ± SEM
[3] = after illumination (365 nm) for 3 min, normalized to maximum response of LSN2148936 (100%), mean ± SEM

Row | EC50 (VDR; [2]) | Emax (VDR; [3]) | %cis at the photostationary state ([1]; 365 nm) | %trans at the photostationary state ([1]; 365 nm) | %cis at the photostationary state ([1]; 380 nm) | %trans at the photostationary state ([1]; 380 nm) | %cis at the photostationary state ([1]; 405 nm) | %trans at the photostationary state ([1]; 405 nm) | %cis at the photostationary state ([1]; 420 nm) | %trans at the photostationary state ([1]; 420 nm) | %cis at the photostationary state ([1]; 470 nm) | %trans at the photostationary state ([1]; 470 nm) | %cis at the photostationary state ([1]; 500 nm) | %trans at the photostationary state ([1]; 500 nm) | %cis at the photostationary state ([1]; 530 nm) | %trans at the photostationary state ([1]; 530 nm) | SMILES | Activity in the dark (VDR) | Activity (Emax) (VDR; after illumination (365 nm) for 3 min, normalized to maximum response of LSN2148936 (100%), mean ± SEM, listed as 11b (PhotoVDRM)) | antagonist activity (VDR; several concentrations with LSN2148936 at 300nM, dark or 365 nm) | %cis at the photostationary state ([1]; 420 nm, listed as PhotoVDRM)
1 | 1260 nM | 60 ± 1.26% | 94,52% | 5,48% | 92,81% | 7,19% | 60,54% | 39,46% | 58,09% | 41,91% | 29,80% | 70,20% | 26,59% | 73,41% | 21,22% | 78,78% | Cc1cc(/N=N/c2cccc(-c3ccc(C(=O)O)cc3)c2)ccc1OCC(O)C(C)(C)C (stereo not shown) [Compound 11a] | small increase in the activity |  |  | 
2 | 1100 nM | 23 ± 2.65% | 93,70% | 6,30% | 91,83% | 8,17% | 60,42% | 39,58% | 58,05% | 41,95% | 29,15% | 70,85% | 25,54% | 74,46% | 20,56% | 79,44% | COC(=O)c1ccc(-c2cccc(/N=N/c3ccc(OCC(O)C(C)(C)C)c(C)c3)c2)cc1 (stereo not shown) [Compound 10a] |  |  |  | 
3 | 794 nM | 44 ± 5.37% | 96,19% | 3,81% | 95,15% | 4,85% | 62,30% | 37,70% | 59,96% | 40,04% | 29,61% | 70,39% | 25,15% | 74,85% | 19,72% | 80,28% | Cc1cc(OCC(O)C(C)(C)C)ccc1/N=N/c1cccc(-c2ccc(CO)cc2)c1 (stereo not shown) [Compound 12b] |  |  |  | 
4 | 1860 nM | 29 ± 4.31% | 97,00% | 3,00% | 95,62% | 4,38% | 61,14% | 38,86% | 59,71% | 40,29% | 30,53% | 69,47% | 26,82% | 73,18% | 21,34% | 78,66% | COC(=O)c1ccc(-c2cccc(/N=N/c3ccc(OCC(O)C(C)(C)C)c(C)c3)c2)c(C)c1 (stereo not shown) [Compound 10c] |  |  |  | 
5 | 95.5 nM | 61 ± 2.01% | 96,92% | 3,08% | 95,77% | 4,23% | 63,77% | 36,23% | 60,13% | 39,87% | 32,14% | 67,86% | 33,18% | 66,82% | 29,47% | 70,53% | Cc1cc(OCC(O)C(C)(C)C)ccc1/N=N/c1cccc(-c2ccc(CO)cc2C)c1 (stereo not shown) [Compound 12d] |  |  |  | 
6 | 339 nM | 31 ± 3.13% | 97,06% | 2,94% | 95,61% | 4,39% | 63,64% | 36,36% | 60,45% | 39,55% | 33,06% | 66,94% | 34,03% | 65,97% | 30,20% | 69,80% | Cc1cc(/N=N/c2cccc(-c3ccc(CO)cc3)c2)ccc1OCC(O)C(C)(C)C (stereo not shown) [Compound 12a] |  |  |  | 
7 | 575 nM | 68 ± 3.73% | 97,22% | 2,78% | 94,72% | 5,28% | 61,36% | 38,64% | 59,26% | 40,74% | 31,49% | 68,51% | 28,18% | 71,82% | 22,70% | 77,30% | Cc1cc(/N=N/c2cccc(-c3ccc(C(=O)O)cc3C)c2)ccc1OCC(O)C(C)(C)C (stereo not shown) [Compound 11c] |  |  |  | 

Row | SMILES | EC50 (VDR; [2]) | Emax (VDR; [3]) | %cis at the photostationary state ([1]; 365 nm) | %trans at the photostationary state ([1]; 365 nm) | %cis at the photostationary state ([1]; 380 nm) | %trans at the photostationary state ([1]; 380 nm) | %cis at the photostationary state ([1]; 405 nm) | %trans at the photostationary state ([1]; 405 nm) | %cis at the photostationary state ([1]; 420 nm) | %trans at the photostationary state ([1]; 420 nm) | %cis at the photostationary state ([1]; 470 nm) | %trans at the photostationary state ([1]; 470 nm) | %cis at the photostationary state ([1]; 500 nm) | %trans at the photostationary state ([1]; 500 nm) | %cis at the photostationary state ([1]; 530 nm) | %trans at the photostationary state ([1]; 530 nm) | Activity in the dark (VDR) | Activity (Emax) (VDR; after illumination (365 nm) for 3 min, normalized to maximum response of LSN2148936 (100%), mean ± SEM, listed as 11b (PhotoVDRM)) | antagonist activity (VDR; several concentrations with LSN2148936 at 300nM, dark or 365 nm) | %cis at the photostationary state ([1]; 420 nm, listed as PhotoVDRM)
8 | Cc1cc(OCC(O)C(C)(C)C)ccc1N=Nc1cccc(-c2ccc(C(=O)O)cc2)c1 (stereo not shown) [Compound 11b] | 58.9 nM | > 80% | 96,87% | 3,13% | 95,62% | 4,38% | 63,64% | 36,36% | 60,47% | 39,53% | 31,30% | 68,70% | 32,81% | 67,19% | 29,14% | 70,86% | inactive | 84 ± 2.62% | does no act as antagonist | up to 60%
